In patent US6849426B2, “Methods and reagents for detecting endotoxin” (Cambrex Bio Science Walkersville, Inc., priority 2001, dated 2005):

How the values were obtained:
Assay type in all cases: biochemical
[1] = target: T1, recombinant Factor C (rFC) (Carcinoscorpius rotundicauda, UniProt Q26422); experiment: recombinant Factor C (rFC) assay with different detergents; conditions: for Detergent concentration range for rFC enhancing / Detergent concentration range for rFC inhibition: 1 EU/ml EC-6, DPR-coumarin substrate, 38° C., data after 30 minutes; for enhancing concentration range (narrow or wide): rFC assay
T1 construct: made in house; host or cells: Sf9 insect cells, baculovirus
T1 sequence (Q26422 26-1019): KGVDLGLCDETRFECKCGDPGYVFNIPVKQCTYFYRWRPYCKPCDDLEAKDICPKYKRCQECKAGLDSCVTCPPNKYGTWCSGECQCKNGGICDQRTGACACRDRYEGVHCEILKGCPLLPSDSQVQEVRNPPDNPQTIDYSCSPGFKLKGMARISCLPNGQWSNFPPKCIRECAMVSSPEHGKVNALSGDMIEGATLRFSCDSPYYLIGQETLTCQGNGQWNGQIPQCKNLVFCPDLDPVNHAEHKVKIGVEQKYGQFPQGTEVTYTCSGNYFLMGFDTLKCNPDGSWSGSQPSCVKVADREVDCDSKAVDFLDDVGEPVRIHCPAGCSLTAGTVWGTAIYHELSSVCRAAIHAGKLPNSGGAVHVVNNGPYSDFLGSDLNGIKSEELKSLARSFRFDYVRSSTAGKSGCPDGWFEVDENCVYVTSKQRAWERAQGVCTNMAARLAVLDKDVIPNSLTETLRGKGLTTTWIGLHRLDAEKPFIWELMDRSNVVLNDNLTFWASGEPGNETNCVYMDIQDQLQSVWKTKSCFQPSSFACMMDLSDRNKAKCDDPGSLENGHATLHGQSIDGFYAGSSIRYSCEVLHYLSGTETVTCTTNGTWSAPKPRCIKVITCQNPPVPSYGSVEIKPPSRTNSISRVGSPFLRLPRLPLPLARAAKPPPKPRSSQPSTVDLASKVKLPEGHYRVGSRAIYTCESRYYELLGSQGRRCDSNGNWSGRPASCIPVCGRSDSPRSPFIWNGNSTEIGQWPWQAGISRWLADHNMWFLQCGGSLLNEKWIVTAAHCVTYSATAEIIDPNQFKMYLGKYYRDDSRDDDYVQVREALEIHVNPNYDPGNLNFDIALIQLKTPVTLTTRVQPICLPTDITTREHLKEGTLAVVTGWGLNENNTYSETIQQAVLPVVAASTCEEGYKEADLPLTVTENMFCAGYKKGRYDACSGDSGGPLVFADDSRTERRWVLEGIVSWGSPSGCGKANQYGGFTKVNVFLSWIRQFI
Protocol: The recombinant Factor C (rFC) assay was carried out using 20 μl of each detergent (˜10× of final concentration), 150 μl of 1 EU/ml EC-6, 10 μl of rFC supernatant 031901I, 20 μl of 300 mM Tris, pH 8.0, and 20 μl of 0.55 mM DPR-coumarin substrate. The results of the assay were read at 38° C. using a Cytofluor reader set at 390/440 nm, 5 minutes per cycle, for 1 hour. The data were graphed after 30 minutes.

[2] = test system: purified Limulus factor C; experiment: Limulus Factor C activity at different Zwittergent concentrations; conditions: FIG. 6; compared with recombinant Factor C assay
Protocol: The enhancing/inhibiting effect of Zwittergent 3-14 was also tested using purified Limulus factor C (FIG. 6).
We isolated the factor C from Limulus and generated antisera against the protein. The Limulus lysate was first separated with a S-100 gel filtration followed by cation-ion exchange column. The fractions were assayed for factor C activity using the N-t-BOC-Val-Pro-Arg 7-Amido-4-methyl coumarin substrate. The Limulus factor C was purified 73 fold with 80% homogeneity as determined by enzyme assay and SDS-PAGE. The molecular weight of Limulus factor C was 117 kDa by SDS-PAGE under non-reducing conditions. […] A specific polyclonal antibody against the Limulus factor C was generated in rabbits. The anti-factor C purified IgG inhibited the activation of factor C by LPS but had no effect on the protease activity once the factor C was activated by LPS.

Recombinant Factor C = target: T2, Recombinant Factor C (Carcinoscorpius rotundicauda, UniProt Q26422); experiment: one-step, 1-hour endpoint endotoxin assay with or without surfactant; conditions: assay buffer with or without 0.0125% Zwittergent; endotoxin 055:B5 0.01-10 EU/ml; FIG. 7
T2 construct: made in house; host or cells: Sf9 insect cells, baculovirus
T2 sequence (Q26422 26-1019): T1 sequence (Q26422 26-1019)
Protocol: A one-step, 1-hour endpoint assay was performed. Endotoxin 055:B5, 0.01, 0.1, 1, and 10 EU/ml were used for the standard curve. Blank and endotoxin standards (100 μl each) were added to a 96-well plate. […] This mixture was added into each blank and endotoxin standard. The fluorescence was recorded at time zero and time 1 hour. The difference in fluorescences (delta fluorescence) were normalized with the blank. Normalized delta fluorescence was then graphed against endotoxin concentration in a log-log scale. Each data point is the result of duplicate assays.

[3] = target: T3, recombinant Carcinoscorpius rotundicauda Factor C (Carcinoscorpius rotundicauda, UniProt Q26422); experiment: two-step and one-step endotoxin assay (Examples 1 and 13); conditions: assay of Examples 1 and 13
T3 construct: made in house; host or cells: Sf9 insect cells, baculovirus (pFASTBAC1 bacmid); culture supernatant used without purification
T3 sequence (Q26422 26-1019): T1 sequence (Q26422 26-1019)
Protocol: Endotoxin was pre-incubated with culture medium containing recombinant Carcinoscorpius rotundicauda Factor C obtained from recombinant Factor C-producing Sf9 cells for 1 hour in assay buffer (30 mM Tris, pH 8.0, 30 mM NaCl, 0.3% lactose, and 0.0025% Zwittergent 3-14). The substrate N-t-Boc-Asp(Obzl)-Pro-Arg-7-Amido-4-methyl coumarin (DPR-coumarin) was added to the mixture to a final concentration of […]. The fluorescence generated from the cleavage of the substrate by activated Factor C was measured after 15-20 minutes. Results of a similar assay carried out using the substrate N-t-Boc-Val-Pro-Arg-7-Amido-4-methyl coumarin at a final concentration of 100 mM are shown in FIG. 5.
A one-step endotoxin assay can be carried out in a 96-well plate, using 100 μl each of blank and endotoxin standards. […] The plate is incubated at 37° C. for 1 hour. Excitation and emission are read at 390 and 440 nm, respectively, in a fluorescence microplate reader.

Row | Compound | Detergent concentration range for rFC enhancing [1] | Detergent concentration range for rFC inhibition [1] | enhancing concentration range (narrow or wide) [1] | enhancing/inhibiting effect on purified Limulus factor C [2] | increase of endotoxin detection sensitivity when surfactant was included (Recombinant Factor C) | optimal concentration of the surfactant [3]
1 | polyoxyethylene (20) sorbitan monolaurate [Tween 20] | 0.001-0.5% | >0.5% | wide |  |  | 
2 | polyoxyethylene (20) sorbitan monooleate [Tween 80] | 0.001-0.25% | >0.25% | wide |  |  | 
3 | CCCCCCCCCCCCCC[N+](C)(C)CCCS(=O)(=O)[O-] [Zwittergent 3-14, N-tetradecyl-N,N-dimethyl-3-ammonio-1-propanesulfonate] |  | >=0.004% | narrow | A similar enhancing/inhibiting effect was observed | 10 fold | 0.0025%
4 | CCCCCCCCS[C@@H]1O[C@H](CO)[C@@H](O)[C@H](O)[C@H]1O [OTG, octyl-beta-D-thioglucoside] |  | >=0.5% | narrow |  |  | 
5 | Triton X-100 |  | >=0.008% | narrow |  |  | 
6 | CCCCCCCCCCCCOS(=O)(=O)[O-].[Na+] [SDS] |  | >=0.0004% |  |  |  | 
